Measurements published in PubChem BioAssay (NCI).
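Test compounds were applied to cells in 96-well plates for 48 hours at 5 doses. GI50 marks 50% less growth. TGI denotes the concentration required for complete inhibition of growth.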

Experiments:
Experiment in all cases: NCI anticancer screen, dose series, 48 h
786-0 renal = tested on: 786-0 renal
A498 renal = tested on: A498 renal
A549 NSCLC = tested on: A549 NSCLC
ACHN renal = tested on: ACHN renal
BT-549 breast = tested on: BT-549 breast
CAKI-1 renal = tested on: CAKI-1 renal
CCRF-CEM leukemia = tested on: CCRF-CEM leukemia
COLO 205 colon = tested on: COLO 205 colon
DU-145 prostate = tested on: DU-145 prostate
HCC-2998 colon = tested on: HCC-2998 colon
HCT-116 colon = tested on: HCT-116 colon
HCT-15 colon = tested on: HCT-15 colon
HL-60(TB) leukemia = tested on: HL-60(TB) leukemia
HOP-62 NSCLC = tested on: HOP-62 NSCLC
HOP-92 NSCLC = tested on: HOP-92 NSCLC
HS 578T breast = tested on: HS 578T breast
HT29 colon = tested on: HT29 colon
IGROV1 ovarian = tested on: IGROV1 ovarian
K-562 leukemia = tested on: K-562 leukemia
KM12 colon = tested on: KM12 colon
LOX IMVI melanoma = tested on: LOX IMVI melanoma
MALME-3M melanoma = tested on: MALME-3M melanoma
MCF7 breast = tested on: MCF7 breast
MDA-MB-231 breast = tested on: MDA-MB-231 breast
MDA-MB-435 = tested on: MDA-MB-435
MOLT-4 leukemia = tested on: MOLT-4 leukemia
NCI-H226 lung = tested on: NCI-H226 lung

COC(=O)C(N)CSC(c1ccccc1)(c1ccccc1)c1ccccc1 (centres undefined)
GI50 (786-0 renal): 4.23 µM | TGI (786-0 renal): 86.5 µM | GI50 (A498 renal): 0.629 µM | TGI (A498 renal): 54 µM | GI50 (A549 NSCLC): 2.93 µM | TGI (A549 NSCLC): > 100 µM | GI50 (ACHN renal): 0.922 µM | TGI (ACHN renal): > 100 µM | GI50 (BT-549 breast): 2.29 µM | TGI (BT-549 breast): 53.3 µM | GI50 (CAKI-1 renal): 5.51 µM | TGI (CAKI-1 renal): > 100 µM | GI50 (CCRF-CEM leukemia): 0.636 µM | TGI (CCRF-CEM leukemia): > 100 µM | GI50 (COLO 205 colon): 2.15 µM | TGI (COLO 205 colon): > 100 µM | GI50 (DU-145 prostate): 3.26 µM | TGI (DU-145 prostate): > 100 µM | GI50 (HCC-2998 colon): 2.1 µM | TGI (HCC-2998 colon): 29.9 µM | GI50 (HCT-116 colon): 0.418 µM | TGI (HCT-116 colon): 34.4 µM | GI50 (HCT-15 colon): 2.7 µM | TGI (HCT-15 colon): > 100 µM | GI50 (HL-60(TB) leukemia): 1.82 µM | TGI (HL-60(TB) leukemia): 8.48 µM | GI50 (HOP-62 NSCLC): 48.9 µM | TGI (HOP-62 NSCLC): > 100 µM | GI50 (HOP-92 NSCLC): 0.436 µM | TGI (HOP-92 NSCLC): 13.2 µM | GI50 (HS 578T breast): 0.512 µM | TGI (HS 578T breast): 15 µM | GI50 (HT29 colon): 3.36 µM | TGI (HT29 colon): 59.6 µM | GI50 (IGROV1 ovarian): 9.86 µM | TGI (IGROV1 ovarian): > 100 µM | GI50 (K-562 leukemia): 0.63 µM | TGI (K-562 leukemia): > 100 µM | GI50 (KM12 colon): 2.88 µM | TGI (KM12 colon): 53.5 µM | GI50 (LOX IMVI melanoma): 4.48 µM | TGI (LOX IMVI melanoma): > 100 µM | GI50 (MALME-3M melanoma): 4.7 µM | TGI (MALME-3M melanoma): 74 µM | GI50 (MCF7 breast): 0.445 µM | TGI (MCF7 breast): > 100 µM | GI50 (MDA-MB-231 breast): 1.62 µM | TGI (MDA-MB-231 breast): 25.4 µM | GI50 (MDA-MB-435): 0.247 µM | TGI (MDA-MB-435): 0.644 µM | GI50 (MOLT-4 leukemia): 4 µM | TGI (MOLT-4 leukemia): > 100 µM | GI50 (NCI-H226 lung): 5.38 µM | TGI (NCI-H226 lung): > 100 µM
